This is an account of results in the OligoGym collection.

The target in the data set is HBV. The conditions noted are these: ASO.

“And” between values parts separate entries of the source, which are not always exact repeats. Equal entries are not always repeated. HELM strings list units from the 5' end as sugar, base in round brackets, then linkage (d deoxyribose, r ribose, m 2'-O-methyl, p phosphodiester). Methylation of C is not given here. [moe] = 2'-O-(2-methoxyethyl) (MOE); [cEt] = constrained ethyl (cEt); [sp] = phosphorothioate linkage

Consider “RNA1{[moe](C)[sp].[moe](A)[sp].[moe](A)[sp].[moe](T)[sp].d(T)[sp].d(T)[sp].d(A)[sp].d(T)[sp].d(G)[sp].d(C)[sp].d(C)[sp].d(T)[sp].d(A)[sp].[moe](C)[sp].[moe](A)[sp].[moe](G)[sp].[moe](C)}$$$$V2.0”, for which, for the setting “HepG2, 0.07 µM”, the target mRNA inhibition was 34% and 25%. The same measure, in the same setting: then “RNA1{[moe](A)[sp].[moe](C)[sp].[moe](C)[sp].d(A)[sp].d(A)[sp].d(T)[sp].d(T)[sp].d(T)[sp].d(A)[sp].d(T)[sp].d(G)[sp].d(C)[sp].[moe](C)[sp].[moe](T)[sp].[moe](A)[sp].[moe](C)[sp].[moe](A)}$$$$V2.0”, with 31% and 33%. Regarding “RNA1{[moe](C)[sp].[cEt](T)[sp].[cEt](G)[sp].d(A)[sp].d(G)[sp].d(G)[sp].d(C)[sp].d(C)[sp].d(C)[sp].d(A)[sp].d(C)[sp].d(T)[sp].d(C)[sp].[cEt](C)[sp].[cEt](C)[sp].[moe](A)}$$$$V2.0”, the target mRNA inhibition is, setting by setting: (HepG2, 0.0092593 µM) 58%; (HepG2, 0.0277778 µM) 83%; (HepG2, 0.07 µM) 59% and 84%; (HepG2, 0.0833333 µM) 90%; (HepG2, 0.25 µM) 90%. Take “RNA1{[moe](A)[sp].[moe](T)[sp].d(T)[sp].d(T)[sp].d(A)[sp].d(T)[sp].d(G)[sp].d(C)[sp].d(C)[sp].d(T)[sp].d(A)[sp].[moe](C)[sp].[moe](A)[sp].[moe](G)[sp].[moe](C)[sp].[moe](C)}$$$$V2.0”: the target mRNA inhibition (HepG2, 0.07 µM) is 36% and 25%. For the substance “RNA1{[moe](G)[sp].[moe](T)[sp].[moe](G)[sp].d(A)[sp].d(A)[sp].d(G)[sp].d(C)[sp].d(G)[sp].d(A)[sp].d(A)[sp].d(G)[sp].d(T)[sp].[moe](G)[sp].[moe](C)[sp].[moe](A)[sp].[moe](C)}$$$$V2.0”, the target mRNA inhibition (HepG2, 0.07 µM) is 70% and 68%. Regarding “RNA1{[moe](A)[sp].[cEt](A)[sp].[moe](G)[sp].[cEt](C)[sp].d(G)[sp].[cEt](A)[sp].d(A)[sp].d(G)[sp].d(T)[sp].d(G)[sp].d(C)[sp].d(A)[sp].d(C)[sp].[moe](A)[sp].[moe](C)[sp].[moe](G)[sp].[moe](G)}$$$$V2.0”, the target mRNA inhibition (HepG2, 0.009375 µM) was found to be 31%; the target mRNA inhibition (HepG2, 0.01875 µM) came out at 28%; the target mRNA inhibition (HepG2, 0.0375 µM) amounted to 48%; the target mRNA inhibition (HepG2, 0.075 µM) was 61%; the target mRNA inhibition (HepG2, 0.15 µM) is 80%; the target mRNA inhibition (HepG2, 0.3 µM) was found to be 90%. With “RNA1{[moe](G)[sp].[moe](T)[sp].[moe](T)[sp].[moe](C)[sp].d(C)[sp].d(G)[sp].d(C)[sp].d(A)[sp].d(G)[sp].d(T)[sp].d(A)[sp].d(T)[sp].d(G)[sp].[moe](G)[sp].[moe](A)[sp].[moe](T)}$$$$V2.0”, for the setting “HepG2, 0.07 µM”, the target mRNA inhibition was 57% and 45%.

Take “RNA1{[moe](A)[sp].[cEt](G)[sp].[cEt](C)[sp].d(G)[sp].d(A)[sp].d(A)[sp].d(G)[sp].d(T)[sp].d(G)[sp].d(C)[sp].d(A)[sp].d(C)[sp].d(A)[sp].[cEt](C)[sp].[cEt](G)[sp].[moe](G)}$$$$V2.0”: the target mRNA inhibition by setting is: (HepG2, 0.0092593 µM) 19%; (HepG2, 0.0277778 µM) 52%; (HepG2, 0.07 µM) 83% and 82%; (HepG2, 0.0833333 µM) 86%; (HepG2, 0.25 µM) 93%.

For “RNA1{[moe](T)[sp].[moe](G)[sp].[moe](A)[sp].[moe](G)[sp].[moe](G)[sp].[moe](C)[sp].d(A)[sp].d(T)[sp].d(A)[sp].d(G)[sp].d(C)[sp].d(A)[sp].d(G)[sp].d(C)[sp].d(A)[sp].[moe](G)[sp].[moe](G)}$$$$V2.0”, the target mRNA inhibition (HepG2, 0.07 µM) is 58% and 44%. Still for that read-out and setting: then “RNA1{[moe](C)[sp].[cEt](C)[sp].d(A)[sp].d(C)[sp].d(T)[sp].d(G)[sp].d(A)[sp].d(A)[sp].d(C)[sp].d(A)[sp].d(A)[sp].d(A)[sp].[cEt](T)[sp].[moe](G)[sp].[cEt](G)[sp].[moe](C)}$$$$V2.0”, with 76% and 78%.

Consider “RNA1{[moe](A)[sp].[moe](T)[sp].[moe](T)[sp].[cEt](T)[sp].[cEt](A)[sp].d(T)[sp].d(G)[sp].d(C)[sp].d(C)[sp].d(T)[sp].d(A)[sp].d(C)[sp].[cEt](A)[sp].[cEt](G)[sp].[moe](C)[sp].[moe](C)[sp].[moe](T)}$$$$V2.0”, for which the target mRNA inhibition by setting is: (HepG2, 0.009375 µM) 4%; (HepG2, 0.01875 µM) 30%; (HepG2, 0.0375 µM) 44%; (HepG2, 0.075 µM) 52%; (HepG2, 0.15 µM) 67%; (HepG2, 0.3 µM) 76%. On to “RNA1{[moe](G)[sp].[moe](A)[sp].[moe](A)[sp].d(C)[sp].d(T)[sp].d(G)[sp].d(G)[sp].d(A)[sp].d(G)[sp].d(C)[sp].d(C)[sp].d(A)[sp].[moe](C)[sp].[moe](C)[sp].[moe](A)[sp].[moe](G)}$$$$V2.0”, for which the target mRNA inhibition (HepG2, 0.07 µM) was 51% and 39%. Take “RNA1{[moe](G)[sp].[moe](C)[sp].[moe](A)[sp].[moe](G)[sp].[moe](A)[sp].d(G)[sp].d(G)[sp].d(T)[sp].d(G)[sp].d(A)[sp].d(A)[sp].d(G)[sp].d(C)[sp].d(G)[sp].[moe](A)[sp].[moe](A)[sp].[moe](G)}$$$$V2.0”: where the note is “HepG2, 0.07 µM”, the target mRNA inhibition was 76% and 59%.

On to “RNA1{[moe](C)[sp].[cEt](A)[sp].[cEt](G)[sp].d(C)[sp].d(A)[sp].d(A)[sp].d(A)[sp].d(C)[sp].d(A)[sp].d(C)[sp].d(T)[sp].d(T)[sp].d(G)[sp].[cEt](G)[sp].[cEt](C)[sp].[moe](A)}$$$$V2.0”, for which the target mRNA inhibition (HepG2, 0.07 µM) was 62% and 61%. On the same count and under the same terms, then “RNA1{[moe](C)[sp].[cEt](A)[sp].[cEt](C)[sp].d(T)[sp].d(A)[sp].d(G)[sp].d(T)[sp].d(A)[sp].d(A)[sp].d(A)[sp].d(C)[sp].d(T)[sp].d(G)[sp].[cEt](A)[sp].[cEt](G)[sp].[moe](C)}$$$$V2.0”, with 73% and 71%; and “RNA1{[moe](A)[sp].[moe](T)[sp].[moe](G)[sp].d(A)[sp].d(G)[sp].d(G)[sp].d(C)[sp].d(A)[sp].d(T)[sp].d(A)[sp].d(G)[sp].d(C)[sp].[moe](A)[sp].[moe](G)[sp].[moe](C)[sp].[moe](A)}$$$$V2.0”, with 53% and 44%. The same measure, in the same setting: the figure for “RNA1{[moe](A)[sp].[moe](C)[sp].[moe](C)[sp].[moe](A)[sp].d(A)[sp].d(T)[sp].d(T)[sp].d(T)[sp].d(A)[sp].d(T)[sp].d(G)[sp].d(C)[sp].d(C)[sp].[moe](T)[sp].[moe](A)[sp].[moe](C)[sp].[moe](A)}$$$$V2.0” is 39% and 38%; for “RNA1{[moe](G)[sp].[moe](T)[sp].d(G)[sp].d(A)[sp].d(A)[sp].d(G)[sp].d(C)[sp].d(G)[sp].d(A)[sp].d(A)[sp].d(G)[sp].[moe](T)[sp].[moe](G)[sp].[moe](C)[sp].[moe](A)[sp].[moe](C)}$$$$V2.0” it is 68% and 60%; for “RNA1{[moe](C)[sp].[moe](G)[sp].[moe](T)[sp].d(G)[sp].d(C)[sp].d(A)[sp].d(G)[sp].d(A)[sp].d(G)[sp].d(G)[sp].d(T)[sp].d(G)[sp].d(A)[sp].[cEt](A)[sp].[cEt](G)[sp].[cEt](C)}$$$$V2.0” it is 72% and 60%. The same measure, in the same setting: then “RNA1{[moe](A)[sp].[moe](G)[sp].[moe](A)[sp].[moe](G)[sp].[moe](A)[sp].d(A)[sp].d(G)[sp].d(T)[sp].d(C)[sp].d(C)[sp].d(A)[sp].d(C)[sp].d(C)[sp].d(A)[sp].[moe](C)[sp].[moe](G)[sp].[moe](A)}$$$$V2.0”, with 28% and 27%; and “RNA1{[moe](G)[sp].[moe](A)[sp].d(A)[sp].d(C)[sp].d(T)[sp].d(G)[sp].d(G)[sp].d(A)[sp].d(G)[sp].d(C)[sp].d(C)[sp].[moe](A)[sp].[moe](C)[sp].[moe](C)[sp].[moe](A)[sp].[moe](G)}$$$$V2.0”, with 40% and 18%. “RNA1{[moe](G)[sp].[moe](C)[sp].[moe](A)[sp].d(C)[sp].d(T)[sp].d(A)[sp].d(G)[sp].d(T)[sp].d(A)[sp].d(A)[sp].d(A)[sp].d(C)[sp].[moe](T)[sp].[moe](G)[sp].[moe](A)[sp].[moe](G)}$$$$V2.0” yielded a target mRNA inhibition (HepG2, 0.07 µM) of 59%. Same read-out and setting: then “RNA1{[moe](T)[sp].[cEt](T)[sp].d(T)[sp].d(A)[sp].d(T)[sp].d(G)[sp].d(C)[sp].d(C)[sp].d(T)[sp].d(A)[sp].d(C)[sp].d(A)[sp].[cEt](G)[sp].[moe](C)[sp].[cEt](C)[sp].[moe](T)}$$$$V2.0”, with 8% and 1%; and “RNA1{[moe](C)[sp].[moe](C)[sp].[moe](G)[sp].[moe](C)[sp].d(A)[sp].d(G)[sp].d(T)[sp].d(A)[sp].d(T)[sp].d(G)[sp].d(G)[sp].d(A)[sp].d(T)[sp].[moe](C)[sp].[moe](G)[sp].[moe](G)}$$$$V2.0”, with 76% and 71%. Still for that read-out and setting: then “RNA1{[moe](C)[sp].[moe](A)[sp].[moe](G)[sp].[moe](A)[sp].d(G)[sp].d(G)[sp].d(T)[sp].d(G)[sp].d(A)[sp].d(A)[sp].d(G)[sp].d(C)[sp].d(G)[sp].[moe](A)[sp].[moe](A)[sp].[moe](G)}$$$$V2.0”, with 47% and 50%. For the substance “RNA1{[moe](A)[sp].[moe](G)[sp].[moe](G)[sp].[moe](C)[sp].[moe](A)[sp].d(T)[sp].d(A)[sp].d(G)[sp].d(C)[sp].d(A)[sp].d(G)[sp].d(C)[sp].d(A)[sp].d(G)[sp].[moe](G)[sp].[moe](A)}$$$$V2.0”, the target mRNA inhibition is 9% (HepG2, 0.0092593 µM); 13% (HepG2, 0.0277778 µM); 66% and 56% (HepG2, 0.07 µM); 29% (HepG2, 0.0833333 µM); 51% (HepG2, 0.25 µM). Regarding “RNA1{[moe](C)[sp].[cEt](G)[sp].d(C)[sp].d(A)[sp].d(G)[sp].d(T)[sp].d(A)[sp].d(T)[sp].d(G)[sp].d(G)[sp].d(A)[sp].d(T)[sp].[cEt](C)[sp].[moe](G)[sp].[cEt](G)[sp].[moe](C)}$$$$V2.0”, the target mRNA inhibition (HepG2, 0.0092593 µM) came to 22%; the target mRNA inhibition (HepG2, 0.0277778 µM) is 49%; the target mRNA inhibition (HepG2, 0.07 µM) was 83% and 92%; the target mRNA inhibition (HepG2, 0.0833333 µM) is 82%; the target mRNA inhibition (HepG2, 0.25 µM) stood at 91%.
